Test results: patent publication US12606564B2, “Adenosine receptor antagonist compounds” (ILDONG PHARMACEUTICAL CO., LTD., priority 2019, dated 2026)

Key:
[1] = biological target: T1, Human recombinant adenosine A2A receptor (Homo sapiens, UniProt P29274); experiment: Human adenosine A2A receptor binding assay with [3H] CGS-21680 (Example 4.2); settings: summary of Table 5, binding assays of Examples 4.1 and 4.2
Experimental: Test compound is weighed, dissolved in DMSO to make a stock solution of 10 mM, diluted with DMSO to prepare working solutions, then 100-fold diluted to the indicated concentrations. Human recombinant adenosine A2A receptors expressed in HEK-293 cells were used to prepare membranes in incubation buffer (50 mM Tris-HCl, pH 7.4, 10 mM MgCl2, 1 mM EDTA, 2 U/ml Adenosine Deaminase). Test compound or vehicle (2.2 μL) was added in 200 μL of membranes and incubated with 20 μL of 50 nM [^3H] […] Non-specific binding was estimated in the presence of 50 μM NECA (5′-N-ethylcarboxamidoadenosine). The incubation was stopped by vacuum filtration onto 0.3% PEI (polyethylenimine) presoaked GF/B filters using a harvester followed by four washes with ice-cold 50 mM Tris-HCl, pH 7.4, and the radioactivity on GF/B filtermats counted in a scintillation counter (PerkinElmer Topcount™) to determine [^3H] […] Final concentration of vehicle DMSO is 1%.

[2] = biological target: T2, Human recombinant adenosine A1 receptors (Homo sapiens, UniProt P30542); experiment: Human adenosine A1 receptor binding assay with [3H] DPCPX (purine compounds, Example 2.2); settings: membranes of CHO-K1 cells
T2 construct: expressed in transfected cells; host or cells: CHO-K1, membrane preparation
T2 sequence (P30542 1-326): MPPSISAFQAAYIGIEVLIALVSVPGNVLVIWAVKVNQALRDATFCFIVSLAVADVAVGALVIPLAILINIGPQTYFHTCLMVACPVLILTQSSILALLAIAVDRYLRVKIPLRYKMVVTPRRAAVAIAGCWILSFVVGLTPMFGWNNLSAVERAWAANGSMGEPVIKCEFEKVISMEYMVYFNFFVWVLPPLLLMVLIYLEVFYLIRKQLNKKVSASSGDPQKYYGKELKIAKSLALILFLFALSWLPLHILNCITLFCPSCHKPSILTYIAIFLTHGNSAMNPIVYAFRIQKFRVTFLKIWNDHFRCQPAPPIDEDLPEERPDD
Experimental: Test compound is weighed, dissolved in DMSO to make a stock solution of 10 mM, diluted with DMSO to prepare working solutions, then 100-fold diluted to the indicated concentrations. Human recombinant adenosine A1 receptors expressed in CHO-K1 cells were used to prepare membranes in incubation buffer (20 mM HEPES (4-(2-hydroxyethyl)-1-piperazineethanesulfonic acid) pH 7.4, 10 mM MgCl2, 100 mM NaCl). Test compound or vehicle (2.2 μL) was added in 200 μL of membranes and incubated with 20 μL of 1 nM [^3H] DPCPX (8-cyclopentyl-1,3-dipropylxanthine) for 90 minutes at 25° C. Non-specific binding was estimated in the presence of 100 μM R(−)-PIA ((R)—N-(1-methyl-2-phenylethyl)adenosine). The incubation was stopped by vacuum filtration onto 0.3% PEI (polyethylenimine) presoaked GF/B filters using a harvester followed by four washes with ice-cold 50 mM Tris-HCl, pH 7.4, and the radioactivity on GF/B filtermats counted in a scintillation counter (PerkinElmer Topcount™) to determine [^3H] DPCPX specifically bound. Final concentration of vehicle DMSO is 1%. Data is fitted using the non-linear curve fitting routines in Meth-IQ software (ID Business Solutions Ltd., UK).
The binding affinity of selected compounds against A1 receptor was assessed using the binding assay described above.

human recombinant A2AR = human recombinant A2AR (Homo sapiens, UniProt P29274); experiment: Human A2A functional cAMP assay in human recombinant A2AR stable cell line (HEK293)
Chain of human recombinant A2AR (P29274 whole entry): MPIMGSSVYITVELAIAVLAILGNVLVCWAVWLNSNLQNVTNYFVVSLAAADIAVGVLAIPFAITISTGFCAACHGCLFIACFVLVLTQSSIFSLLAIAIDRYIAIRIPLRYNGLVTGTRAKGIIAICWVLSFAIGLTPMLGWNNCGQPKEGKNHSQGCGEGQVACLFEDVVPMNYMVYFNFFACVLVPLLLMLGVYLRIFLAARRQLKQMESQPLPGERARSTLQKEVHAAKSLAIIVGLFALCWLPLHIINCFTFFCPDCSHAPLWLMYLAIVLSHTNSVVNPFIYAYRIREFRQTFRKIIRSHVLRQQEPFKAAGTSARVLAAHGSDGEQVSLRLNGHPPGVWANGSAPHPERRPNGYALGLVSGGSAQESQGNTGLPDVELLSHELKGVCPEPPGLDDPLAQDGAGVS
Experimental: cAMP assay was performed on human recombinant A2AR stable cell line (HEK293). The cells were cultured at 37° C. and 5% CO2 with culture medium (90% DMEM+10% FBS+500 μg/mL G418). […] Then, 100 nL compounds were transferred by Echo machine with 12 doses respectively. Cells were collected with stimulation buffer (1×HBSS with 5 mM HEPES+0.05 mM IBMX+0.1% BSA) and plated the cells at the density of 5,000 cells/well, centrifuged at 600 rpm for 3 min and then incubation with compounds at room temperature for 60 min. After that, 5 μL 4× Eu-cAMP tracer solution and 5 μL 4× ULight™-anti-cAMP solution were added into the cells, centrifuged at 600 rpm for 3 min and incubated for 60 min. cAMP signal was detected with Envision. GraphPad Prism (version 6.0) was used for the data analysis.
The A2A receptor antagonistic activity of selected compounds was assessed using the cAMP assay described above.

[3] = biological target: T1, Human recombinant adenosine A2A receptor; experiment: A2A receptor (A2AR) SPA binding assay with [3H] SCH58261; parameters: expressed in transfected cells; host or cells: HEK293 (HKE293 [sic]), membrane preparation; settings: [3H] SCH58261 radioligand
Experimental: Test compound is weighed, then dissolved in 100% DMSO to prepare 20 mM stock solution. Dilute the stock solution with DMSO into 100× final concentration, and then use this DMSO solution to perform 3-fold serial dilution for totally 12 concentrations with DMSO. 10-fold diluting the serial dilutions with assay buffer to the working concentrations. […] SCH58261 as the radioligand. The assay buffer is prepared with DPBS containing 10 mM MgCl2. 5 μL of compound working solutions (a total of 12 concentrations starting from 1 or 3 μM, 1/3 dilution) is transferred to the wells by the 12-channel pipette. A2AR membrane is pre-incubated with adenosine deaminase for 15 min at room temperature. Then SPA beads are added and the membrane-bead suspension mixture is incubated for 30 min at room temperature with the rotary mixer. […] SCH58261 radioligand solution. Final concentration of DMSO in the A2AR SPA binding assay is 1%. Sealing the plates and incubate for 1 hr at 27° C. with vigorous mixing on a plate shaker. After 1 hr, centrifuge the plate (1000 rpm, 1 min), and settle the plate for 5 min prior to counting. The signal of radiation is measured by the Microbeta2. […] Non-specific binding refers to the wells containing reaction system with the presence of 100 μM SCH58261. The dose-response curve is fitted with GraphPad Prism 5 and IC50 values are calculated by log(inhibitor) vs. response—Variable slope program with the following formula: Y=Bottom+(Top−Bottom)/(1+10^[…] ligand concentration used in assay/radio ligand Kd)
The binding affinity of selected compounds against A2A receptor was assessed using the SPA binding assay described above.

T1 sequence (P29274 whole entry): as above

Structure (SMILES) | activity as dual antagonists of both A2A and A1 receptors (in words) [1] | Ki [2] | IC50 (human recombinant A2AR) | Ki [3]
N#Cc1cccc(-c2nc(N)nc3c2cnn3Cc2ccc(N)cc2F)c1F [Compound 203, 3-(6-amino-1-(4-amino-2-fluorobenzyl)-1H-pyrazolo[3,4-d]pyrimidin-4-yl)-2-fluorobenzonitrile] | potent activity as dual antagonists |  |  | 
N#Cc1cc(-c2nc(N)nc3c2ncn3Cc2ccc(N)cc2)ccn1 [Compound 118, 4-[2-amino-9-[(4-aminophenyl)methyl]purin-6-yl]pyridine-2-carbonitrile] |  |  |  | > 500 nM
Cc1c(C#N)cccc1-c1nc(N)nc2c1ncn2Cc1ccc(N)cc1 [Compound 105, 3-(2-amino-9-(4-aminobenzyl)-9H-purin-6-yl)-2-methylbenzonitrile] |  |  |  | > 500 nM
N#Cc1cccc(-c2nc(N)nc3c2cnn3Cc2ccc(N)c(C(F)(F)F)c2)c1F [Compound 211, 3-(6-amino-1-(4-amino-3-(trifluoromethyl)benzyl)-1H-pyrazolo[3,4-d]pyrimidin-4-yl)-2-fluorobenzonitrile] | potent activity as dual antagonists |  |  | 
N#Cc1cncc(-c2nc(N)nc3c2ncn3Cc2c(F)cc(N)cc2F)c1 [Compound 125, 5-[2-amino-9-[(4-amino-2,6-difluoro-phenyl)methyl]purin-6-yl]pyridine-3-carbonitrile] |  |  |  | 100 to 500 nM
N#Cc1cccc(-c2nc(N)nc3c2ncn3Cc2c(F)cc(N)cc2F)c1F [Compound 108, 3-(2-amino-9-(4-amino-2,6-difluorobenzyl)-9H-purin-6-yl)-2-fluorobenzonitrile] |  | 300 to 1000 nM | 300 to 1000 nM | 10 to 100 nM
N#Cc1cccc(-c2nc(N)nc3c2cnn3Cc2c(F)cc(N)cc2F)c1 [Compound 207, 3-(6-amino-1-(4-amino-2,6-difluorobenzyl)-1H-pyrazolo[3,4-d]pyrimidin-4-yl)benzonitrile] | potent activity as dual antagonists |  |  | 
N#Cc1cccc(-c2nc(N)nc3c2ncn3Cc2ccc(N)cc2)c1 [Compound 101, 3-(2-amino-9-(4-aminobenzyl)-9H-purin-6-yl) benzonitrile] |  | > 1000 nM | > 1000 nM | 10 to 100 nM
N#Cc1cccc(-c2nc(N)nc3c2ncn3Cc2ccc(N)cc2)c1F [Compound 102, 3-(2-amino-9-(4-aminobenzyl)-9H-purin-6-yl)-2-fluorobenzonitrile] |  |  |  | 100 to 500 nM
Cc1c(C#N)cccc1-c1nc(N)nc2c1ncn2Cc1c(F)cccc1F [Compound 114, 3-(2-amino-9-(2,6-difluorobenzyl)-9H-purin-6-yl)-2-methylbenzonitrile] |  | > 1000 nM |  | 10 to 100 nM
N#Cc1cc(-c2nc(N)nc3c2ncn3Cc2c(F)cc(N)cc2F)ccn1 [Compound 126, 4-[2-amino-9-[(4-amino-2,6-difluoro-phenyl)methyl]purin-6-yl]pyridine-2-carbonitrile] |  |  |  | 10 to 100 nM
N#Cc1cc(-c2nc(N)nc3c2ncn3Cc2c(F)cccc2F)ccn1 [Compound 134, 4-[2-amino-9-[(2,6-difluorophenyl)methyl]purin-6-yl]pyridine-2-carbonitrile] |  |  |  | 10 to 100 nM
N#Cc1cccc(-c2nc(N)nc3c2ncn3Cc2ccc(N)cc2F)n1 [Compound 119, 6-[2-amino-9-[(4-amino-2-fluoro-phenyl)methyl]purin-6-yl]pyridine-2-carbonitrile] |  |  |  | 100 to 500 nM
N#Cc1cccc(-c2nc(N)nc3c2ncn3Cc2c(F)cccc2F)c1F [Compound 113, 3-(2-amino-9-(2,6-difluorobenzyl)-9H-purin-6-yl)-2-fluorobenzonitrile] |  | 300 to 1000 nM | 300 to 1000 nM | 10 to 100 nM
N#Cc1cccc(-c2nc(N)nc3c2ncn3Cc2ccc(N)cc2F)c1F [Compound 103, 3-(2-amino-9-(4-amino-2-fluorobenzyl)-9H-purin-6-yl)-2-fluorobenzonitrile] |  | > 1000 nM | > 1000 nM | 10 to 100 nM

The remaining lines, values ahead:

activity as dual antagonists of both A2A and A1 receptors (in words) [1] | Ki [2] | IC50 (human recombinant A2AR) | Ki [3] | Structure (SMILES)
 | ≤ 300 nM | < 300 nM | < 10 nM | N#Cc1cccc(-c2nc(N)nc3c2ncn3Cc2c(F)cccc2F)c1 [Compound 112, 3-(2-amino-9-(2,6-difluorobenzyl)-9H-purin-6-yl) benzonitrile]
 | > 1000 nM |  | 10 to 100 nM | Cc1cc(Cn2cnc3c(-c4cccc(C#N)c4F)nc(N)nc32)ccc1N [Compound 106, 3-(2-amino-9-(4-amino-3-methylbenzyl)-9H-purin-6-yl)-2-fluorobenzonitrile]
 | > 1000 nM | > 1000 nM | 10 to 100 nM | N#Cc1cccc(-c2nc(N)nc3c2ncn3Cc2ccc(N)c(C(F)(F)F)c2)c1F [Compound 111, 3-[2-amino-9-[[4-amino-3-(trifluoromethyl)phenyl]methyl]purin-6-yl]2-fluorobenzonitrile]
 | ≤ 300 nM | < 300 nM | < 10 nM | N#Cc1ccnc(-c2nc(N)nc3c2ncn3Cc2c(F)cc(N)cc2F)c1 [Compound 124, 2-[2-amino-9-[(4-amino-2,6-difluoro-phenyl)methyl]purin-6-yl]pyridine-4-carbonitrile]
 | ≤ 300 nM | < 300 nM | < 10 nM | N#Cc1cccc(-c2nc(N)nc3c2ncn3Cc2c(F)cc(N)cc2F)c1 [Compound 107, 3-(2-amino-9-(4-amino-2,6-difluorobenzyl)-9H-purin-6-yl)benzonitrile]
 | 300 to 1000 nM | < 300 nM | < 10 nM | N#Cc1cccc(-c2nc(N)nc3c2ncn3Cc2ccc(N)cc2F)c1 [Compound 109, 3-(2-amino-9-(4-amino-2-fluorobenzyl)-9H-purin-6-yl)benzonitrile]
 | 300 to 1000 nM | 300 to 1000 nM | < 10 nM | Cc1cc(Cn2cnc3c(-c4cc(C#N)ccn4)nc(N)nc32)ccc1N [Compound 128, 2-[2-amino-9-[(4-amino-3-methyl-phenyl)methyl]purin-6-yl]pyridine-4-carbonitrile]
 | > 1000 nM | < 300 nM | < 10 nM | Cc1cc(Cn2cnc3c(-c4cccc(C#N)c4)nc(N)nc32)ccc1N [Compound 104, 3-(2-amino-9-(4-amino-3-methylbenzyl)-9H-purin-6-yl)benzonitrile]
 | 300 to 1000 nM | < 300 nM | < 10 nM | N#Cc1ccnc(-c2nc(N)nc3c2ncn3Cc2ccc(N)cc2F)c1 [Compound 120, 2-[2-amino-9-[(4-amino-2-fluoro-phenyl)methyl]purin-6-yl]pyridine-4-carbonitrile]
 | ≤ 300 nM | < 300 nM | < 10 nM | N#Cc1ccnc(-c2nc(N)nc3c2ncn3Cc2c(F)cccc2F)c1 [Compound 132, 2-[2-amino-9-[(2,6-difluorophenyl)methyl]purin-6-yl]pyridine-4-carbonitrile]
 | 300 to 1000 nM | < 300 nM | < 10 nM | N#Cc1cccc(-c2nc(N)nc3c2ncn3Cc2ccc(N)c(C(F)(F)F)c2)c1 [Compound 110, 3-[2-amino-9-[[4-amino-3-(trifluoromethyl)phenyl]methyl]purin-6-yl]benzonitrile]
